Source: publication PMC10353390, “Biological and Structural Analyses of New Potent Allosteric Inhibitors of HIV-1 Integrase” (Antimicrobial Agents and Chemotherapy, 2023)

What was measured:
[1] = test system: recombinant NL4-3 viruses with polymorphisms at IN positions 124 and 125; test: Multiple-round infection of MT4 cells with recombinant NL4-3 viruses polymorphic at IN positions 124 and 125; assay type: cell-based, HIV-1
Excerpt: Located on the HIV-1 IN CCD dimerization interface, the principal INLAI binding pocket overlaps with a hot spot of amino acid sequence polymorphism involving IN residues 124 and 125 ([16]). To test if the new INLAIs maintained antiviral activity against major polymorphisms, we introduced all major combinations of residues found in circulating HIV-1 strains at positions 124 and 125 into NL4-3 HIV-1 molecular clone. In total, we evaluated 15 such combinations that collectively covered 98% of all HIV-1 clade polymorphisms involving these positions ([48]). To gauge effects on the antiviral activity, we calculated the EC50 fold change (FC) relative to wild type NL4-3 HIV-1 strain that features Thr124 and Thr125 (TT; specific polymorphisms are referred to by a single letter amino acid code).
(§1) MT4 cells growing exponentially at the density of 10^6/mL were infected with HIV-1 strain NL4-3 at a multiplicity of infection (MOI) of 0.001 for 2 h in the presence of different concentrations of compounds, and the CellTiter-Glo luminescent reagent (Promega) was used to quantify cell viability as described previously ([12]).

NL4-3 HIV-1 strain = test: Multiple-round infection assay in MT4 cells, NL4-3; assay type: cell-based; details: MT4 cells
[2] = Cytotoxicity assay in MT4 cells; assay type: cell-based; details: human, MT4 cells (proliferating human T-cell line), CellTiter-Glo
Excerpt: Growth inhibition was monitored in a proliferating human T-cell line (MT4) with different concentrations of compounds, using the CellTiter-Glo luminescent reagent (Promega), as previously described ([12]).

HIV-1 IN = molecular target: T1, HIV-1 IN (Human immunodeficiency virus type 1 group M subtype B, UniProt P12497); test: HTRF IN multimerization assay; assay type: biochemical; details: mean ± SD
T1 construct: made in house
Excerpt: A key property of INLAIs is the ability to promote HIV-1 IN homo-multimerization ([39][–][42]). […] The maximal signal (plateau) in our IN aggregation assay corresponds to the highest HTRF signal increase under saturating INLAI concentration, relative to baseline level. Thus, MUT916, MUT884, MUT871, and MUT872 increased HIV-1 IN aggregation 3.7 to 4.4-fold, while BDM-2, BI-224436, and S-I-82 did so 5 to 6-fold (Table 1).

[3] = test system: HIV-1 strains resistant to INSTIs, NRTIs, NNRTIs or PIs; assay type: cell-based
How it was run: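 NL4-3-based recombinant mutants and drug-resistant clinical isolates; exponentially growing MT4 cells (10^6/mL) infected at MOI 0.001 for 2 h with compound at varying concentrations. Protection quantified as cell viability by CellTiter-Glo luminescence.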

[4] = test system: NL4-3 HIV-1 with INLAI-selected IN single point mutations; assay type: cell-based
[5] = test system: primary HIV-1 isolates with polymorphisms at IN positions 124 and 125; test: Multiple-round infection of MT4 cells with primary HIV-1 isolates polymorphic at IN positions 124 and 125; assay type: cell-based; details: primary isolate
Description: Next, we evaluated the potency of the BDM-2 series of INLAIs against several primary HIV-1 isolates with polymorphisms at IN positions 124 and 125.
as §1

[6] = molecular target: CCD of HIV-1 IN and IBD of LEDGF/p75 (Human immunodeficiency virus type 1 group M subtype B, UniProt P12497); test: biochemical
[7] = molecular target: HIV-1 IN-LEDGF/p75 interaction (Human immunodeficiency virus type 1 group M subtype B, UniProt P12497); test: biochemical
Description: The INLAIs were tested for the ability to inhibit the HIV-1 IN-LEDGF/p75 interaction in a homogeneous time-resolved fluorescence (HTRF) assay. Our assays used either full-length IN and LEDGF/p75 proteins or their respective minimally sufficient interaction domains: the CCD of HIV-1 IN and the IBD of LEDGF/p75 (Table 1).
HTRF-based CCD-IBD interaction, IN-LEDGF/p75 interaction and IN multimerization assays were performed as described previously ([12]).

[8] = test system: VSV-G-pseudotyped NL4-3Δenv-luc; test: microbe, parasite or virus in culture; assay type: cell-based, HIV-1
HXB2 HIV-1 strain = test: Multiple-round infection assay in MT4 cells, HXB2; assay type: cell-based; details: Human immunodeficiency virus 1, HXB2; multiple-round infection, MT4 cells; mean ± SD, n > 5; read-out: EC50 HXB2
How it was run: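 MT4 cells at 10^6/mL were infected with HIV-1 at MOI 0.001 for 2 h in the presence of compound dilutions. Cell viability, measured by CellTiter-Glo luminescence, served as the read-out of protection in this multiple-round infection.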

[9] = INSTI-resistant, NL4-3 background

With `Cc1ccc(C2CC2)c(-c2ccc3c(c2)CCCO3)c1[C@H](OC1CC1)C(=O)O` [MUT872] the “Fold change in EC50 relative to parental NL4-3, AA” value ([1]; recombinant NL4-3, IN 124/125 AA) was 1, the “Fold change in EC50 relative to parental NL4-3, AM” value ([1]; recombinant NL4-3, IN 124/125 AM) was 0.3 and the “Fold change in EC50 relative to parental NL4-3, AT” value ([1]; recombinant NL4-3, IN 124/125 AT) was 1. For the same compound, the “Fold change in EC50 relative to parental NL4-3, AV” value ([1]; recombinant NL4-3, IN 124/125 AV) was 0.5, the “Fold change in EC50 relative to parental NL4-3, GA” value ([1]; recombinant NL4-3, IN 124/125 GA) was 2 and the “Fold change in EC50 relative to parental NL4-3, GT” value ([1]; recombinant NL4-3, IN 124/125 GT) was 2. For the same compound, the “Fold change in EC50 relative to parental NL4-3, NA” value ([1]; recombinant NL4-3, IN 124/125 NA) was 1, the “Fold change in EC50 relative to parental NL4-3, NT” value ([1]; recombinant NL4-3, IN 124/125 NT) was 1 and the “Fold change in EC50 relative to parental NL4-3, NV” value ([1]; recombinant NL4-3, IN 124/125 NV) was 1. For the same compound, the “Fold change in EC50 relative to parental NL4-3, SA” value ([1]; recombinant NL4-3, IN 124/125 SA) was 1, the “Fold change in EC50 relative to parental NL4-3, ST” value ([1]; recombinant NL4-3, IN 124/125 ST) was 1 and the “Fold change in EC50 relative to parental NL4-3, TA” value ([1]; recombinant NL4-3, IN 124/125 TA) was 1. For the same compound, the “Fold change in EC50 relative to parental NL4-3, TM” value ([1]; recombinant NL4-3, IN 124/125 TM) was 0.2, the “Fold change in EC50 relative to parental NL4-3, TV” value ([1]; recombinant NL4-3, IN 124/125 TV) was 1 and the EC90 (NL4-3 HIV-1 strain; Human immunodeficiency virus 1, NL43, multiple-round infection, from dose response curves, read-out: EC90 NL4-3) was 61 ± 19 nM. The EC50 (NL4-3 HIV-1 strain; Human immunodeficiency virus 1, NL43, multiple-round infection, mean ± SD, n > 5, read-out: EC50 NL4-3) was 45 ± 12 nM, the “Selectivity index CC50/EC50 NL4-3” value (NL4-3 HIV-1 strain) was 3,088 and the CC50 [2] was 139000 ± 29000 nM. For the same compound, the AC50 (HIV-1 IN; concentration for 50% maximum activation of multimerization) was 43 ± 11 nM, the “IN multimerization Plateau” value (HIV-1 IN; maximum multimerization reached versus baseline) was 440 ± 48% and the “Fold change in EC50 relative to NL4-3, E92Q” value [3, 9] was 1. The “Fold change in EC50 relative to NL4-3, G140S” value [3, 9] was 1, the “Fold change in EC50 relative to NL4-3, G140S/Q148H” value [3, 9] was 1 and the “Fold change in EC50 relative to NL4-3, N155H” value [3, 9] was 1. The “Fold change in EC50 relative to NL4-3, Q148H” value [3, 9] was 1, the “Fold change in EC50 relative to NL4-3, Y143R” value [3, 9] was 0.5 and the “Fold change in EC50 relative to NL4-3, NLAY351717” value ([3]; NRTI-resistant clone) was 1. For the same compound, the “Fold change in EC50 relative to NL4-3, NLAY351753” value ([3]; NRTI/NNRTI-resistant clone) was 1, the “Fold change in EC50 relative to NL4-3, K103N/Y181C” value ([3]; NRTI/NNRTIs group, NL4-3 background) was 1 and the “Fold change in EC50 relative to NL4-3, ARP-4595” value ([3]; PI-resistant virus) was 1. For the same compound, the “Fold change in EC50 relative to NL4-3, ARP-4596” value ([3]; PI-resistant virus) was 1, the “Fold change in EC50 relative to NL4-3, ARP-11801” value ([3]; PI-resistant virus) was 2 and the “Fold change in EC50 relative to NL4-3, ARP-11803” value ([3]; PI-resistant virus) was 1. The “Fold change in EC50 relative to NL4-3, ARP-11807” value ([3]; PI-resistant virus) was 1, the “Fold change in EC50 relative to NL4-3, ARP-11808” value ([3]; PI-resistant virus) was 2 and the “EC50 fold change compared to wild type NL4-3, A128T” value [4] was 7. For the same compound, the “EC50 fold change compared to wild type NL4-3, H171Q” value [4] was 1, the “EC50 fold change compared to wild type NL4-3, N222K” value [4] was 2 and the “EC50 fold change compared to wild type NL4-3, T174I” value [4] was 15. For the same compound, the “EC50 fold change compared to wild type NL4-3, Y99H” value [4] was 2, the “Fold change in EC50 relative to parental NL4-3, CAM2BBY (CRF02)” value ([5]; IN 124/125 AA) was 1 and the “Fold change in EC50 relative to parental NL4-3, E0836M4 (D)” value ([5]; IN 124/125 AA) was 1. For the same compound, the “Fold change in EC50 relative to parental NL4-3, KER2008 (A)” value ([5]; IN 124/125 AA) was 1, the “Fold change in EC50 relative to parental NL4-3, NP1525 (CRF01)” value ([5]; IN 124/125 AA) was 1 and the “Fold change in EC50 relative to parental NL4-3, NP1695 (CRF02)” value ([5]; IN 124/125 AA) was 1. The “Fold change in EC50 relative to parental NL4-3, TZA125 (C)” value ([5]; IN 124/125 AA) was 0.4, the “Fold change in EC50 relative to parental NL4-3, KSM4030 (A)” value ([5]; IN 124/125 GA) was 2 and the “Fold change in EC50 relative to parental NL4-3, vGA (C)” value ([5]; IN 124/125 GA) was 4. For the same compound, the “Fold change in EC50 relative to parental NL4-3, 99ET14 (C)” value ([5]; IN 124/125 NA) was 1, the “Fold change in EC50 relative to parental NL4-3, NP1538 (B)” value ([5]; IN 124/125 NA) was 2 and the “Fold change in EC50 relative to parental NL4-3, vNA_1 (B)” value ([5]; IN 124/125 NA) was 1. The “Fold change in EC50 relative to parental NL4-3, vNA_2 (CRF02)” value ([5]; IN 124/125 NA) was 2, the “Fold change in EC50 relative to parental NL4-3, vNV (B)” value ([5]; IN 124/125 NV) was 1 and the “Fold change in EC50 relative to parental NL4-3, vSA_1 (B)” value ([5]; IN 124/125 SA) was 2. For the same compound, the “Fold change in EC50 relative to parental NL4-3, vSA_2 (CRF02)” value ([5]; IN 124/125 SA) was 2, the “Fold change in EC50 relative to parental NL4-3, vTA_1 (B)” value ([5]; IN 124/125 TA) was 2 and the “Fold change in EC50 relative to parental NL4-3, vTA_2 (CRF02)” value ([5]; IN 124/125 TA) was 2. For the same compound, the IC50 [6] was 420 ± 70 nM, the IC50 [7] was 170 ± 20 nM and the “EC50 ratio (single/multiple-round infection)” value [8] was 196. For the same compound, the EC50 ([8]; Human immunodeficiency virus 1, NL43, MT4, read-out: EC50 in single-round infection) was 8800 ± 300 nM and the EC50 (HXB2 HIV-1 strain) was 18 ± 1 nM.
